The test is described as follows: Effective concentration required for production of cGMP in Chinese hamster ovary cells expressing natriuretic peptide receptor A (NPR-A). The test is classed as functional, cell-based.

EC50 data for one molecule are collected here from ChEMBL document CHEMBL1148388, “Restriction of a peptide turn conformation and conformational analysis of guanidino group using arginine-proline fused amino acids: application to mini atrial natriuretic peptide on binding to the receptor” (J Med Chem, 2004).

On to `CC[C@H](C)[C@@H]1NC(=O)[C@@H](CCCN=C(N)N)NC(=O)[C@H](CC(=O)O)NC(=O)[C@@H](CCSC)NC(=O)[C@H](CCCN=C(N)N)NC(=O)CNC(=O)CNC(=O)[C@@H](Cc2ccccc2)NC(=O)[C@H](Cc2c[nH]cn2)NC(=O)[C@@H](NC(=O)[C@@H](N)CCSC)CSSC[C@H](C(=O)N[C@@H](Cc2ccc(O)cc2)C(=O)N[C@@H](CCCN=C(N)N)C(N)=O)NC(=O)[C@@H](CO)NC1=O` [MiniANP], for which the EC50 – broadly, the concentration needed to bring the measured effect to its halfway point – is 3.1 nM.
